Experimental data published in publication PMC8523698, “Preclinical characterization of an intravenous coronavirus 3CL protease inhibitor for the potential treatment of COVID19” (Nature Communications, 2021).
Several values for one entry are separate records, joined by “and”; a condition that tells them apart may be missing. Identical values can stand only once. Like-named read-outs stand apart in the source and are kept apart here.

What was measured:
BCRP = BCRP (Homo sapiens, UniProt Q9UNQ0); experiment: Transporter inhibition using membrane vesicles; conditions: IC50, Rosuvastatin (0.2 µM)
MATE2K = biological target: T1, MATE2K (Homo sapiens, UniProt Q86VL8); experiment: Transporter inhibition using transfected HEK293 cells; assay type: in vitro ADME; conditions: IC50, [14C]Metformin (20 µM)
T1 construct: expressed in transfected cells; host or cells: HEK293
Experimental: For the inhibition studies, HEK293 cells were washed three times with warm transport buffer (Hanks’ balanced salt solution with 20 mM 4-(2-Hydroxyethyl) piperazine-1-ethanesulfonic acid, pH 7.4) followed by incubation with test compounds containing probe substrates: 10 or 20 µM [^14C]-metformin (OCT1, OCT2, MATE1, MATE2K), 0.5 µM [^3H] para-aminohippuric acid (OAT1), 0.1 µM [^3H] estrone-3-sulfate (OAT3) or 0.5 µM rosuvastatin (OATP1B1/1B3). Uptake was terminated by washing cells at least three times with ice-cold transport buffer and then lysing with 0.2 mL of scintillation fluid or 0.225 mL of methanol containing internal standard. For radiolabeled compounds, radioactivity in each sample was quantified by measurement on MicroBeta (Perkin Elmer). For rosuvastatin, cell extracts were dried down under nitrogen and reconstituted in 50:50 (v:v) methanol:water prior to injection onto a LC-MS/MS system. The total cellular protein content was determined by using a BCA Protein Assay Kit (Pierce Biotechnology) following the manufacturer’s protocol. Uptake ratio was then derived as a ratio of accumulation in transfected cells to accumulation in wild-type cells. The half-maximal inhibitory concentration (IC50) for each transporter was calculated in GraphPad Prism.

[1] = tested on: Salmonella typhimurium strains and E. coli strain WP2 uvrA; experiment: Bacterial reverse mutation assay; conditions: with and without metabolic activation
MDR1/P-gp = MDR1/P-gp (Homo sapiens, UniProt P08183); experiment: Transporter inhibition using membrane vesicles; conditions: for % PGP Uptake Activity: uptake of N-methyl quinidine by MDR1, single replicates
HCoV-229E = experiment: Viral CPE assay in MRC-5 cells (CellTiter Glo); assay type: cell-based; conditions: Human coronavirus 229E
OATP1B1 = biological target: T2, OATP1B1 (Homo sapiens, UniProt Q9Y6L6); experiment: Transporter inhibition using transfected HEK293 cells
T2 sequence (Q9Y6L6 1-691): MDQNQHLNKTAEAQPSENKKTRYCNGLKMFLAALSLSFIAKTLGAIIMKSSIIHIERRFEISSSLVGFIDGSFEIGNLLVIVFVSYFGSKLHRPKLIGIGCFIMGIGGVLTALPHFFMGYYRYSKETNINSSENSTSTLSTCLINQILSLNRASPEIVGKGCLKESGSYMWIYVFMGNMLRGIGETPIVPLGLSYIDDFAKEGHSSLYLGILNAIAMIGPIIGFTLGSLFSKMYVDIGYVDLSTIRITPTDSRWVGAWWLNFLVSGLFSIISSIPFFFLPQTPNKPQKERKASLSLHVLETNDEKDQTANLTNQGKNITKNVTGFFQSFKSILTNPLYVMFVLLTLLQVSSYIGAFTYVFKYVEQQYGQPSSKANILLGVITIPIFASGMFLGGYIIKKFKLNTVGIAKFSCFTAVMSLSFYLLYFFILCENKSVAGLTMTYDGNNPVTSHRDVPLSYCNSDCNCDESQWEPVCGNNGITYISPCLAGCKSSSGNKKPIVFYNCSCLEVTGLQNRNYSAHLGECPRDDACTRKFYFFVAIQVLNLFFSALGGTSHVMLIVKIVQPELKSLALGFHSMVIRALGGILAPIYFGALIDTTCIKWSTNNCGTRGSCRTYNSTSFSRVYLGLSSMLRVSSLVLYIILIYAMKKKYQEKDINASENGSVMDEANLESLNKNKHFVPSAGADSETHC

[2] = Monkey pharmacokinetic study; conditions: for AUC(0-inf): AUCinf; for Vd: Vdss; for AUC(0-t): po, AUCt; for Total Concn in plasma: 1mg/kg IV PF-00835231 dosed (crossover), individual animals and mean
[3] = tested on: SARS-CoV-2 Washington strain 1 (USA_WA1/2020); assay type: cell-based
[4] = male, Cynomolgus, cynomolgus monkey, plasma, iv, 1 mg/kg, Mean, monkey, PF-00835231 active dosed 1mg/kg intravenous (crossover)
[5] = male, Cynomolgus, cynomolgus monkey, plasma, iv, 1 mg/kg, monkey, PF-00835231 active dosed 1mg/kg intravenous (crossover), individual monkeys
[6] = monkey, PF-00835231 active dosed 1mg/kg intravenous (crossover), individual monkeys, 1 mg/kg

Sequence of MDR1/P-gp (P08183 whole entry): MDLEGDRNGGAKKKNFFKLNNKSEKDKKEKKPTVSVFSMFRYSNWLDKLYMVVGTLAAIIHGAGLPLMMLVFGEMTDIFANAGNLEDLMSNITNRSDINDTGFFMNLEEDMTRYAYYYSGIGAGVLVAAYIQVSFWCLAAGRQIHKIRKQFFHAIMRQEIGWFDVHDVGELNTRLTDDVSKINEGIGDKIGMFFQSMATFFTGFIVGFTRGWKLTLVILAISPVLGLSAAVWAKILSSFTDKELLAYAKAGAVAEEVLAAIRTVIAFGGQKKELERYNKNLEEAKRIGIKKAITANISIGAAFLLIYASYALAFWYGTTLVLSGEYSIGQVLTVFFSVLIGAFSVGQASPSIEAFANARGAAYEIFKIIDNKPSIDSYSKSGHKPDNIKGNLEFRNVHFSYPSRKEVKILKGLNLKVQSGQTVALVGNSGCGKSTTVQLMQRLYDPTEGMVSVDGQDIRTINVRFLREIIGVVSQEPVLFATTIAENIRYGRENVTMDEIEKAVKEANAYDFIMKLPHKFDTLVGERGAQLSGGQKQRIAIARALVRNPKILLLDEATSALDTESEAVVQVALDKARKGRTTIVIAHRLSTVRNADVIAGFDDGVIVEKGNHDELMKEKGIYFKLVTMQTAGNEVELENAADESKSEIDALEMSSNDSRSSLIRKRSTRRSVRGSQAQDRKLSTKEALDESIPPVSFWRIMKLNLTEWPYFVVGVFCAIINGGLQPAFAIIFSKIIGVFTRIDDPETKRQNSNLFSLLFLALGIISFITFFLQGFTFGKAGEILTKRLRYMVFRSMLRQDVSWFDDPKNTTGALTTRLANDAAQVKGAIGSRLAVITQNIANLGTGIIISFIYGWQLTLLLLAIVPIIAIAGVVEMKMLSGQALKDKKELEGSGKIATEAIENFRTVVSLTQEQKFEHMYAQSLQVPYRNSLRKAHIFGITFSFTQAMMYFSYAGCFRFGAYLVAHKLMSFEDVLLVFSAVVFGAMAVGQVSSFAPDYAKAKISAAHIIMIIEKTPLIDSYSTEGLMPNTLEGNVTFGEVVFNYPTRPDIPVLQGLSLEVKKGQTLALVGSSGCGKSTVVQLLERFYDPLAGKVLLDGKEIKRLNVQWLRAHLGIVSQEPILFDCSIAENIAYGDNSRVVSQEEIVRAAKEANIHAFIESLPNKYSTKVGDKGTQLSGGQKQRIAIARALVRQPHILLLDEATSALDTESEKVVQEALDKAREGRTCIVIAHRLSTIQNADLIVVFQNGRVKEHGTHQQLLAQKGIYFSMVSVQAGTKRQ
T1 sequence (Q86VL8 1-566 isoform Q86VL8-3): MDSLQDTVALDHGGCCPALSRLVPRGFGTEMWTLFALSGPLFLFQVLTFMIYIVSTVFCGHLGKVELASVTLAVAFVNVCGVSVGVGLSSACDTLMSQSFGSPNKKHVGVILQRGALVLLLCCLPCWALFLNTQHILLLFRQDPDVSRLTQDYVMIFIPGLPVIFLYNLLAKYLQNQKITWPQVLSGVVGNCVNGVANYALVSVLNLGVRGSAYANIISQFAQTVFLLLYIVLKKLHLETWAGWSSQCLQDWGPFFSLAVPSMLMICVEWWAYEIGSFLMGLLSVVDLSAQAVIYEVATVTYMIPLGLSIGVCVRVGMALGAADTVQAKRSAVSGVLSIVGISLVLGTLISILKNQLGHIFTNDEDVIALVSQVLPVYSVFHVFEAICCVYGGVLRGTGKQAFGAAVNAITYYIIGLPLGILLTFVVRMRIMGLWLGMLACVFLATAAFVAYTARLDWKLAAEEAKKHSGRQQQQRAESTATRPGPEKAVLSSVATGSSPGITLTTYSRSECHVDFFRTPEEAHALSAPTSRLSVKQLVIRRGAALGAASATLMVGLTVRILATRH
Sequence of BCRP (Q9UNQ0 whole entry): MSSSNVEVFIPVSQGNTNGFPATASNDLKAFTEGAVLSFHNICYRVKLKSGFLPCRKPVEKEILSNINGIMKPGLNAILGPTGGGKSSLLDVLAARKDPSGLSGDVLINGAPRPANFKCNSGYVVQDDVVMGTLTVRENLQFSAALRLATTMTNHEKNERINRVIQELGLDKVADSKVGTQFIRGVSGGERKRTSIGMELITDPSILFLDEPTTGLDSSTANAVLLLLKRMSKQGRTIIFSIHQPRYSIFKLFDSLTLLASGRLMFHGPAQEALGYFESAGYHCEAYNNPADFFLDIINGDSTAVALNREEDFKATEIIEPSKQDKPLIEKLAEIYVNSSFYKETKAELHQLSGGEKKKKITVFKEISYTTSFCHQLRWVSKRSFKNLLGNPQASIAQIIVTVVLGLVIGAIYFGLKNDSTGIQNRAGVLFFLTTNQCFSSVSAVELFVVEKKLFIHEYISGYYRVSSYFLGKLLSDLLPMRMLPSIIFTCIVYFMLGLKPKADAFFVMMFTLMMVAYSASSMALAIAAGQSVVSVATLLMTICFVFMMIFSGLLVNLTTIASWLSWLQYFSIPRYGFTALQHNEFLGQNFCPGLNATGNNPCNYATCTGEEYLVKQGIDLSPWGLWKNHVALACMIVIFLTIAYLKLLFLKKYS

SMILES: COc1cccc2[nH]c(C(=O)N[C@@H](CC(C)C)C(=O)N[C@@H](C[C@@H]3CCNC3=O)C(=O)CO)cc12 [PF-00835231]
- IC50 (BCRP): 19.5 µM
- IC50 (MATE2K): 180 µM
- IC50 (MATE2K; human, HEK293 cells stably transfected with MATE2K, pH 7.4, probe [14C]-metformin (20 µM)): > 20 µM
- bacterial reverse mutation assay result [1]: negative
- IC50 (MDR1/P-gp; IC50, N-methyl quinidine (0.2 µM)): 65.6 µM
- IC50 at […] (MDR1/P-gp; human, human MDR1 (P-gp) membrane vesicles, pH 7.4, probe N-methyl quinidine (0.2 µM), IC50, N-methyl quinidine (0.2 µM)): > 20 µM
- % PGP Uptake Activity (MDR1/P-gp; inhibitor concentration 0.0732 uM): 93.3145% and 114.451% and 106.12%
- % PGP Uptake Activity (MDR1/P-gp; inhibitor concentration 0.2930 uM): 78.5035% and 118.154% and 104.268%
- % PGP Uptake Activity (MDR1/P-gp; inhibitor concentration 1.1719 uM): 118.617% and 114.451%
- % PGP Uptake Activity (MDR1/P-gp; inhibitor concentration 4.6875 uM): 113.525% and 107.354% and 108.897%
- % PGP Uptake Activity (MDR1/P-gp; inhibitor concentration 18.7500 uM): 94.703% and 96.0915% and 89.1489%
- % PGP Uptake Activity (MDR1/P-gp; inhibitor concentration 300.0000 uM): 17.0995% and 14.0139% and 11.9619%
- EC50 (HCoV-229E; MRC5, MRC-5, minus efflux inhibitor, individual determinations by date): 0.0806 µM
- EC50 (HCoV-229E; MRC5, read-out: EC50 GeoMean (95% CI), efflux inhibitor CP-100356: 0): 0.069 µM
- EC50 (HCoV-229E; MRC5, read-out: EC50 GeoMean (95% CI), efflux inhibitor CP-100356: 0.5 μM): 0.08 µM
- IC50 (OATP1B1): 30.1 µM
- IC50 (OATP1B1; human, HEK293 cells stably transfected with OATP1B1, pH 7.4, probe rosuvastatin (0.5 µM)): > 20 µM
- Total Concn, Mean ([2]; Monkey, 1mg/kg intravenous, Time 0.083): 1225 ng/mL
- Total Concn ([2]; Monkey, 1mg/kg intravenous, Time 0.083, individual animals): 1220 ng/mL
- Total Concn ([2]; Monkey, 1mg/kg intravenous, Time 0.083, individual animals, 1 mg/kg): 1230 ng/mL
- Total Concn, Mean ([2]; Monkey, 1mg/kg intravenous, Time 0.25): 365 ng/mL
- Total Concn ([2]; Monkey, 1mg/kg intravenous, Time 0.25, individual animals): 288 ng/mL
- Total Concn ([2]; Monkey, 1mg/kg intravenous, Time 0.25, individual animals, 1 mg/kg): 442 ng/mL
- Total Concn, Mean ([2]; Monkey, 1mg/kg intravenous, Time 0.5): 183 ng/mL
- Total Concn ([2]; Monkey, 1mg/kg intravenous, Time 0.5, individual animals): 154 ng/mL
- Total Concn ([2]; Monkey, 1mg/kg intravenous, Time 0.5, individual animals, 1 mg/kg): 212 ng/mL
- Total Concn, Mean ([2]; Monkey, 1mg/kg intravenous, Time 1): 107 ng/mL
- Total Concn ([2]; Monkey, 1mg/kg intravenous, Time 1, individual animals, 1 mg/kg): 89.9 ng/mL and 124 ng/mL
- Total Concn, Mean ([2]; Monkey, 1mg/kg intravenous, Time 2): 46 ng/mL
- Total Concn ([2]; Monkey, 1mg/kg intravenous, Time 2, individual animals, 1 mg/kg): 45.5 ng/mL and 47 ng/mL
- Total Concn, Mean ([2]; Monkey, 1mg/kg intravenous, Time 4): 13 ng/mL
- Total Concn ([2]; Monkey, 1mg/kg intravenous, Time 4, individual animals, 1 mg/kg): 12.2 ng/mL and 14 ng/mL
- Total Concn, Mean ([2]; Monkey, 1mg/kg intravenous, Time 7): 2.6 ng/mL
- Total Concn ([2]; Monkey, 1mg/kg intravenous, Time 7, individual animals, 1 mg/kg): 2.87 ng/mL and 2.25 ng/mL
- Vdss ([2]; Monkey, 1mg/kg intravenous, individual animals, 1 mg/kg): 1.51 L/kg
- AUC(0-inf) [2, 4]: 583 ng·h/mL
- AUC(0-inf) [2, 5]: 614 ng·h/mL
- clearance ([2]; male, Cynomolgus, cynomolgus monkey, plasma, iv, 1 mg/kg, Clearance, Mean, monkey, PF-00835231 active dosed 1mg/kg intravenous (crossover)): 28.7 mL/min/kg
- clearance ([2]; male, Cynomolgus, cynomolgus monkey, plasma, iv, 1 mg/kg, Clearance, monkey, PF-00835231 active dosed 1mg/kg intravenous (crossover), individual monkeys): 27.1 mL/min/kg
- half-life ([2]; male, Cynomolgus, cynomolgus monkey, plasma, iv, 1 mg/kg, Half life, Mean, monkey, PF-00835231 active dosed 1mg/kg intravenous (crossover)): 0.92 h
- half-life ([2]; male, Cynomolgus, cynomolgus monkey, plasma, iv, 1 mg/kg, Half life, monkey, PF-00835231 active dosed 1mg/kg intravenous (crossover), individual monkeys): 1.14 h
- Vd [2, 4]: 1.43 L/kg
- Vd [2, 5]: 1.34 L/kg
- half-life ([2]; male, cynomolgus monkey, plasma, iv, 1 mg/kg, Terminal T1/2, monkey IV (n=2, range), PF-07304814 […], PF-00835231 1.0mg/kg): < 2 h
- Vd ([2]; male, cynomolgus monkey, plasma, iv, 1 mg/kg, Mean, Monkey, 1mg/kg intravenous): 1.43 L/kg
- Vd ([2]; male, cynomolgus monkey, plasma, iv, 1 mg/kg, Monkey, 1mg/kg intravenous, individual animals): 1.34 L/kg
- Vd ([2]; male, cynomolgus monkey, plasma, iv, 1 mg/kg, Monkey, Vdss input): 1.4 L/kg
- Vd ([2]; male, cynomolgus monkey, plasma, iv, 1 mg/kg, monkey IV (n=2, range), PF-07304814 […], PF-00835231 1.0mg/kg): < 1.5 L/kg
- clearance ([2]; male, cynomolgus monkey, plasma, iv, Cl, monkey IV (n=2, range), PF-07304814 […], PF-00835231 1.0mg/kg): 28.7 mL/min/kg
- half-life ([2]; male, cynomolgus monkey, plasma, iv, Terminal T1/2, monkey IV (n=2, range), PF-07304814 […], PF-00835231 1.0mg/kg): 1.2 h
- Vd ([2]; male, cynomolgus monkey, plasma, iv, monkey IV (n=2, range), PF-07304814 […], PF-00835231 1.0mg/kg): 1.4 L/kg
- AUC(0-t) ([2]; male, cynomolgus monkey, plasma, 5 mg/kg, Mean, monkey, PF-00835231 5mg/kg PO dose): 0.466 ng·h/mL
- AUC(0-t) ([2]; male, cynomolgus monkey, plasma, 5 mg/kg, monkey, PF-00835231 5mg/kg PO dose, individual monkeys): 0.328 ng·h/mL
- Total Concn ([2]; monkey plasma, PF-00835231 active dosed 1mg/kg intravenous (crossover), time 0.5 h, individual monkeys, 1 mg/kg): 212 ng/mL
- Total Concn ([2]; monkey plasma, PF-00835231 active dosed 1mg/kg intravenous (crossover), time 1 h, individual monkeys, 1 mg/kg): 124 ng/mL
- Total Concn ([2]; monkey plasma, PF-00835231 active dosed 1mg/kg intravenous (crossover), time 2 h, individual monkeys, 1 mg/kg): 47 ng/mL
- Total Concn ([2]; monkey plasma, PF-00835231 active dosed 1mg/kg intravenous (crossover), time 4 h, individual monkeys, 1 mg/kg): 14 ng/mL
- Total Concn ([2]; monkey plasma, PF-00835231 active dosed 1mg/kg intravenous (crossover), time 7 h, individual monkeys, 1 mg/kg): 2.25 ng/mL
- Urine Concn ([2]; monkey urine 0-7h, PF-00835231 active dosed 1mg/kg intravenous (crossover), individual monkeys, 1 mg/kg): 260 ng/mL and 304 ng/mL
- Urine Concn ([2]; monkey urine 7-24h, PF-00835231 active dosed 1mg/kg intravenous (crossover), individual monkeys, 1 mg/kg): 6.76 ng/mL and 33.1 ng/mL
- Total Concn in plasma ([2]; monkey, Time 0.083, 1 mg/kg): 1220 ng/mL and 1225 ng/mL
- Total Concn in plasma ([2]; monkey, Time 0.25, 1 mg/kg): 442 ng/mL and 365 ng/mL
- Total Concn in plasma ([2]; monkey, Time 0.5, 1 mg/kg): 212 ng/mL and 183 ng/mL
- Total Concn in plasma ([2]; monkey, Time 1, 1 mg/kg): 124 ng/mL and 107 ng/mL
- Total Concn in plasma ([2]; monkey, Time 2, 1 mg/kg): 47 ng/mL and 46 ng/mL
- Total Concn in plasma ([2]; monkey, Time 4, 1 mg/kg): 14 ng/mL and 13 ng/mL
- Total Concn in plasma ([2]; monkey, Time 7, 1 mg/kg): 2.87 ng/mL and 2.25 ng/mL and 2.6 ng/mL
- AUCt ([2]; monkey, PF-00835231 5mg/kg PO dose, individual monkeys, 5 mg/kg): 0.603 ng·h/mL
- AUCinf [2, 6]: 552 ng·h/mL
- Half life [2, 6]: 1.27 h
- Vdss [2, 6]: 1.51 L/kg
- clearance [2, 6]: 30.2 mL/min/kg
- Oral F% ([2]; monkey, 5mg/kg PO vs 1.0mg/kg IV): < 0.1% and < 2%
- hill coefficient (m) [3]: 3
